Source: patent US6686366B1, “Compounds specific to adenosine A3 receptor and uses thereof” (OSI Pharmaceuticals, Inc., priority 1998, dated 2004)
Like-named read-outs stand apart in the source and are kept apart here.

Experiments:
[1] = biological target: T1, human adenosine A1 receptor (Homo sapiens, UniProt P30542); assay: Yeast β-Galactosidase reporter gene assay, inhibition of NECA-induced activity, strain CY12660
T1 sequence (P30542 1-326): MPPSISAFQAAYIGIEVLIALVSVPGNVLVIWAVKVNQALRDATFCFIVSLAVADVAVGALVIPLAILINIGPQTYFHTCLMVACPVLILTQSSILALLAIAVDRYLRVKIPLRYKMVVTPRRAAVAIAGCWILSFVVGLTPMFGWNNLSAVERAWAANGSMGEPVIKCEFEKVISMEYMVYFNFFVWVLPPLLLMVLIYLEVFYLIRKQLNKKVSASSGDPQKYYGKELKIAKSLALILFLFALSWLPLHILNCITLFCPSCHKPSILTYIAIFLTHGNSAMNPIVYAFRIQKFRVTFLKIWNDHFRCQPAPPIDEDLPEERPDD

[2] = biological target: T2, human A1 receptor subtype (Homo sapiens, UniProt P30542); assay: biochemical
T2 sequence (P30542 1-326): T1 sequence (P30542 1-326)

A1 adenosine receptor = A1 adenosine receptor (Homo sapiens, UniProt P30542); conditions: cited from earlier work
[3] = biological target: T3, human A2a receptor subtype (Homo sapiens, UniProt P29274); assay: Adenosine 2a receptor subtype competition radioligand binding, [3H]CGS-21680, HEK293 membranes; conditions: Table 13; concentration not given
T3 construct: expressed in transfected cells; host or cells: HEK-293 (Cadus clone #5), membranes
T3 sequence (P29274 whole entry): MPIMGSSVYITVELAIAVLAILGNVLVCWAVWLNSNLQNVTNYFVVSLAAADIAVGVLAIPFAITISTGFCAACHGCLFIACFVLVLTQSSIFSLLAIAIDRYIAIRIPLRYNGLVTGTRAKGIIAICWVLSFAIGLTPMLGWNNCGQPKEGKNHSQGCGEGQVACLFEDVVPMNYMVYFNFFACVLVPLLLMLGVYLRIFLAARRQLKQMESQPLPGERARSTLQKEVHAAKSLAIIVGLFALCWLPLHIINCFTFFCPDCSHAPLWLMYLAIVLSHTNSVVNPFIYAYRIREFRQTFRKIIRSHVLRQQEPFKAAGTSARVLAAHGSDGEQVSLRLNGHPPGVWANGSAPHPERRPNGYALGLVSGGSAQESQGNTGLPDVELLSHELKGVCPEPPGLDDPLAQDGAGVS

[4] = biological target: T2, human A1 receptor subtype; conditions: Table 13; concentration not given
[5] = biological target: T4, human A2b receptor subtype (Homo sapiens, UniProt P29275); assay: Adenosine 2b receptor subtype competition radioligand binding, [3H]DPCPX, HEK293 membranes; conditions: Table 13
T4 construct: expressed in transfected cells; host or cells: HEK293, membranes
T4 sequence (P29275 1-332): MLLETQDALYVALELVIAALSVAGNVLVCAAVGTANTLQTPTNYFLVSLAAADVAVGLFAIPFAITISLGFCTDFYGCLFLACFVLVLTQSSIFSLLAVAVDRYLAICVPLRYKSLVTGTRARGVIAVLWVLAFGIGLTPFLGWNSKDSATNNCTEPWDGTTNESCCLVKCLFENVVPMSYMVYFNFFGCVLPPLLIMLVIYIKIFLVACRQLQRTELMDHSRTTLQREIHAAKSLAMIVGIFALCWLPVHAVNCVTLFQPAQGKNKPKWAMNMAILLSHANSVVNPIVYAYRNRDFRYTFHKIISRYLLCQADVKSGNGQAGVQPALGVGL

[6] = biological target: T5, human A3 receptor subtype (Homo sapiens, UniProt P0DMS8); assay: Adenosine 3 receptor competition radioligand binding, [125I]AB-MECA, HEK293 membranes
T5 sequence (P0DMS8 1-318): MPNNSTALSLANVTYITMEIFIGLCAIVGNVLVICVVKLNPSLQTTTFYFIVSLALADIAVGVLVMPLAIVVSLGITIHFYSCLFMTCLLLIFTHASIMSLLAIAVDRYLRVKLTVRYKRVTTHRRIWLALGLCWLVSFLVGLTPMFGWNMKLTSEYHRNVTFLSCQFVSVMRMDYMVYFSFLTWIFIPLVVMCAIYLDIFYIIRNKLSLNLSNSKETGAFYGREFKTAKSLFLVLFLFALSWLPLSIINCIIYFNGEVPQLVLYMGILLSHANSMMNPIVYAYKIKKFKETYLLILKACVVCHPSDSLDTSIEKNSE

[7] = biological target: T6, human A1 adenosine receptor (Homo sapiens, UniProt P30542); assay: Displacement binding of [3H]CPX, yeast membranes expressing hA1R
T6 sequence (P30542 1-326): T1 sequence (P30542 1-326)

human A3 receptor = biological target: T7, human A3 receptor (Homo sapiens, UniProt P0DMS8); assay: Displacement binding of [3H]CPX, yeast membranes expressing hA3R
T7 sequence (P0DMS8 1-318): T5 sequence (P0DMS8 1-318)

[8] = A1 Yeast IC50 (nM), Table 10, Effect of N6-Substituent
[9] = A1 Binding Ki (nM), Table 10, Effect of N6-Substituent
[10] = A1 Binding Ki (nM), Table 6, Effect of N6-Substituent
[11] = A1 Yeast IC50 (nM), Table 6, Effect of N6-Substituent

Row | SMILES | IC50 [1, 8] [nM] | Ki [2, 9] [nM] | also measured
1 | CC(=O)NCCCNc1nc(-c2ccccc2)nc2[nH]c(C)c(C)c12 [Compound 1010] | 9380 | 675 | –
2 | Cc1[nH]c2nc(-c3ccccc3)nc(N[C@@H]3CCC[C@H]3O)c2c1C [Compound 614] | – | – | Ki [2, 10]: 32.1 nM
3 | Cc1c(C)n(C(C)c2ccccc2)c2nc(-c3ccccc3)nc(NCC(C)C)c12 (stereo not shown) [Compound 903] | – | – | Ki ([2]; A1 Binding Bi (nM), Table 9): 35.3 nM
4 | CC(=O)NC(C)CNc1nc(-c2ccccc2)nc2[nH]c(C)c(C)c12 (stereo not shown) [Compound 1104] | – | – | IC50 ([1]; A1 Yeast IC50 (nM), Table 11, Effect of N6-Substituent): 58.7 nM
5 | CC(=O)NC1CCC(Nc2nc(-c3ccccc3)nc3[nH]c(C)c(C)c23)CC1 (stereo not shown) [Compound 605] | – | – | IC50 [1, 11]: > 10000 nM; Ki [2, 10]: > 10000 nM
6 | Cc1[nH]c2nc(-c3ccccc3)nc(NC3CCC(NS(C)(=O)=O)CC3)c2c1C (stereo not shown) [Compound 604] | – | – | IC50 [1, 11]: > 10000 nM
7 | CC(=O)NCCNc1nc(-c2ccccc2)nc2[nH]c(COc3ccccc3)cc12 [Example 17, 4-(2-acetylaminoethyl)amino-6-phenoxymethyl-2-phenyl-7H-pyrrolo[2,3d]pyrimidine] | – | – | melting point: 196 to 197 °C
8 | Cc1[nH]c2nc(-c3ccccc3)nc(NCCO)c2c1C [Compound 1014] | 2000 | 385 | –
9 | Cc1[nH]c2nc(-c3ccccc3)nc(NCCCCO)c2c1C [Compound 1016] | 5050 | 176 | –
10 | Cc1[nH]c2nc(-c3ccccc3)nc(NCCNC=O)c2c1C [Compound 1001] | 1870 | 54.4 | –
11 | CCC(=O)NCCCNc1nc(-c2ccccc2)nc2[nH]c(C)c(C)c12 [Compound 1013] | 3010 | 270 | –
12 | CC(Cc1ccccc1)Nc1ncnc2c1ncn2[C@@H]1O[C@H](CO)[C@@H](O)[C@H]1O (single isomer, unassigned; (-)) [PIA, (−)-N6-(2-phenylisopropyl)-adenosine] | – | – | reported affinity (A1 adenosine receptor): approximately 50 nM
13 | Cc1[nH]c2nc(-c3ccccc3)nc(NCCNC(=O)C3(N)CC3)c2c1C [Compound 1313] | – | – | Binding A2a, value given in % [3]: 65%; Binding A1, value printed in % [4]: 30%
14 | Cc1[nH]c2nc(-c3ccccc3)nc(NC3CCC(OC(=O)c4ccccc4)CC3)c2c1C (stereo not shown) [Compound 611] | – | – | IC50 ([1]; read-out: A1 Yeast IC50, Table 6, Effect of N6-Substituent): > 10000 nM
15 | Cc1[nH]c2nc(-c3ccccc3)nc(NCCNC(=O)CCC(=O)O)c2c1C [Compound 1008] | 3220 | 93.1 | –
16 | CC(=O)OCCNc1nc(-c2ccccc2)nc2[nH]c(C)c(C)c12 [Compound 1011] | 2070 | 122 | –
17 | Cc1[nH]c2nc(C3CCCC3)nc(N[C@H]3CC[C@H](O)CC3)c2c1C [Compound 703] | – | – | IC50 ([1]; A1 Yeast IC50 (nM), Table 7, Effect of C2-Substituent): > 10000 nM; Ki ([2]; A1 Binding Ki (nM), Table 7, Effect of C2-Substituent): 444 nM
18 | Cc1[nH]c2nc(-c3ccccc3)nc(NCCNC(=O)C(C)C)c2c1C [Compound 1005] | 3970 | 147 | –
19 | CCC(=O)NCCNc1nc(-c2ccccc2)nc2[nH]c(C)c(C)c12 [Compound 1003] | 196 | 26.7 | –
20 | CC(=O)NCCCCNc1nc(-c2ccccc2)nc2[nH]c(C)c(C)c12 [Compound 1311] | – | – | Ki [5]: 736 nM; Ki [6]: 0.0053 µM
21 | Cc1[nH]c2nc(-c3ccc(F)cc3)nc(NC3CCC(O)CC3)c2c1C (stereo not shown) [Compound 707] | – | – | Ki [2]: 62.8 nM
22 | O=c1nc2[nH]c3ccccc3nc-2c(=O)[nH]1 [Alloxazine] | – | – | IC50 [7]: 1.07 µM; IC50 (human A3 receptor): 8.22 µM
23 | Cc1[nH]c2nc(-c3ccccc3)nc(NCCNC(=O)CCN)c2c1C [Compound 1009] | – | 475 | –
24 | CNC(=O)NCCCNc1nc(-c2ccccc2)nc2[nH]c(C)c(C)c12 [Compound 1310] | – | – | Binding A2a, value given in % [3]: 76%
25 | Cc1c(C)n(C)c2nc(-c3ccccc3)nc(N[C@H]3CC[C@H](O)CC3)c12 [Compound 800] | – | – | IC50 [1]: > 10000 nM; Ki [2]: 3310 nM
26 | CC(=O)C(=O)NCCNc1nc(-c2ccccc2)nc2[nH]c(C)c(C)c12 [Compound 1006] | 2920 | 152 | –
27 | Cc1[nH]c2nc(-c3ccccc3)nc(NC3CCC(OC(=O)c4ccccc4)CC3)c2c1C (stereo not shown) [Compound 606] | – | – | IC50 [1]: > 10000 nM
28 | Cc1[nH]c2nc(-c3ccccc3)nc(NCCNC(=O)C3CC3)c2c1C [Compound 1004] | 546 | 32.8 | –
29 | Cc1[nH]c2nc(-c3ccccc3)nc(NCCNS(C)(=O)=O)c2c1C [Compound 1007] | – | 692 | –
